Data taken from ChEMBL document CHEMBL4739716, “Gpr139 receptor modulators” (2020).

Assays:
[1] = biological target: T1, Probable G-protein coupled receptor 139 (Rattus norvegicus, UniProt P0C0W8); assay: Agonist activity at rat GPR139 expressed in CHO-K1 cells assessed as increase in calcium flux by calcium 5 dye based FLIPR assay; type: cell-based
T1 sequence (P0C0W8 whole entry): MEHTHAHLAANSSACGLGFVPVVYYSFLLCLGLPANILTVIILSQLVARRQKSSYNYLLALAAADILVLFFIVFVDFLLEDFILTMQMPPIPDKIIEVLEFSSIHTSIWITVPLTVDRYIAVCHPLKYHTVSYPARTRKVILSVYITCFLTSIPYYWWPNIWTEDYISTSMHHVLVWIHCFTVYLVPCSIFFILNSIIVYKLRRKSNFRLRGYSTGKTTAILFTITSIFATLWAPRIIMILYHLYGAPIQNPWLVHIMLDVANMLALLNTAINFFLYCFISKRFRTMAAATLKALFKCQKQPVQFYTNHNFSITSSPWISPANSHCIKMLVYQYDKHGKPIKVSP

[2] = biological target: T2, Probable G-protein coupled receptor 139 (Homo sapiens, UniProt Q6DWJ6); assay: Agonist activity at human GPR139 expressed in CHO-K1 cells assessed as increase in calcium flux by calcium 5 dye based FLIPR assay; type: functional, cell-based
T2 sequence (Q6DWJ6 whole entry): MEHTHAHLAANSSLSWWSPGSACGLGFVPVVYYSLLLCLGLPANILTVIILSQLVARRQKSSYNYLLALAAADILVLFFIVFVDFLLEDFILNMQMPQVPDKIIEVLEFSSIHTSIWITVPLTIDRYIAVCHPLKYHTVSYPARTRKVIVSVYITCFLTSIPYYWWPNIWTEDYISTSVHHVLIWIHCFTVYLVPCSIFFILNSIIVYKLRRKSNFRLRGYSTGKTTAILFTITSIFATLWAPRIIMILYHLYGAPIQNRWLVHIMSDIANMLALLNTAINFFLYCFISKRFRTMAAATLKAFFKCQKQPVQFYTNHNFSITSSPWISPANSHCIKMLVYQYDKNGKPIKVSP

[3] = biological target: T2, Probable G-protein coupled receptor 139; assay: Agonist activity at human GPR139 expressed in CHO-K1 cells assessed as induction of beta-arrestin 2 recruitment incubated for 90 mins by PathHunter assay; type: cell-based
[4] = biological target: T3, Probable G-protein coupled receptor 139 (Homo sapiens) (UniProt Q6DWJ6); assay: Agonist activity at human GPR139 expressed in CHO-K1 cells assessed as increase in calcium flux by calcium 5 dye based FLIPR assay relative to JNJ63533054; type: functional, cell-based; conditions: filed as agonist
T3 sequence (whole entry): T2 sequence (Q6DWJ6 whole entry)

[5] = biological target: T3, Probable G-protein coupled receptor 139 (Homo sapiens); assay: Agonist activity at human GPR139 expressed in CHO-K1 cells assessed as induction of beta-arrestin 2 recruitment incubated for 90 mins by PathHunter assay relative to JNJ63533054; type: cell-based
[6] = biological target: T4, Probable G-protein coupled receptor 139 (Rattus norvegicus) (UniProt P0C0W8); assay: Agonist activity at rat GPR139 expressed in CHO-K1 cells assessed as increase in calcium flux by calcium 5 dye based FLIPR assay relative to JNJ63533054; type: cell-based
T4 sequence (whole entry): T1 sequence (P0C0W8 whole entry)

## CC(C(=O)N[C@@H](C)c1ccc(Cl)c(F)c1)n1nc2cccnn2c1=O (stereo in doubt; I-6-1) [listing 1 of 2 here]
[1]; cho-k1
  EC50: 10 nM
[2]; cho-k1
  EC50: 10 nM
[3]
  EC50: ≥ 100 nM

## CC(C(=O)N[C@@H](C)c1ccc(Cl)c(F)c1)n1nc2cccnn2c1=O (stereo in doubt; I-6-2) [listing 1 of 2 here]
[1]; cho-k1
  EC50: 1 nM
[2]; cho-k1
  EC50: 1 nM
[3]; cho-k1
  EC50: 10 nM

## C[C@H](NC(=O)Cn1nc2c(C(F)(F)F)ccnn2c1=O)c1ccc(Cl)c(F)c1
[4]
  Emax: > 80%
[5]; filed as agonist
  Emax: 50%
[2]
  EC50: < 1 nM
[3]; cho-k1
  EC50: 1 nM

## CC(C(=O)N[C@@H](C)c1ccc(Cl)c(F)c1)n1nc2cccnn2c1=O (stereo in doubt; I-6-2) [listing 2 of 2 here]
[4]
  Emax: > 80%
[5]; filed as agonist
  Emax: 50%
[6]; filed as agonist
  Emax: > 80%

## CNc1ccnn2c(=O)n(CC(=O)N[C@@H](C)c3ccc(Cl)c(F)c3)nc12
[4]
  Emax: > 80%
[5]; filed as agonist
  Emax: > 80%
[2]
  EC50: < 1 nM
[3]; cho-k1
  EC50: 1 nM

## CC(C(=O)N[C@@H](C)c1ccc(Cl)c(F)c1)n1nc2ccccn2c1=O (stereo in doubt; form 2) [listing 1 of 2 here]
[1]; cho-k1
  EC50: 1 nM
[2]; cho-k1
  EC50: 1 nM
[3]; cho-k1
  EC50: 10 nM

## C[C@H](NC(=O)Cn1nc2c(N3CCOCC3)ccnn2c1=O)c1ccc(Cl)c(F)c1
[4]
  Emax: > 80%
[5]; filed as agonist
  Emax: > 80%
[2]
  EC50: < 1 nM
[3]
  EC50: ≥ 100 nM

## Cc1ccc([C@H](C)NC(=O)C(C)n2nc3ccccn3c2=O)cc1 (stereo in doubt; form 2) [listing 1 of 2 here]
[4]
  Emax: > 80%
[5]; filed as agonist
  Emax: > 80%
[6]; filed as agonist
  Emax: > 80%

## Cc1ccc([C@H](C)NC(=O)C(C)n2nc3ccccn3c2=O)cc1 (stereo in doubt; form 3)
[4]
  Emax: > 80%
[5]; filed as agonist
  Emax: 50%
[6]
  Emax: 25%

## COc1ccnn2c(=O)n(CC(=O)N[C@@H](C)c3ccc(Cl)c(F)c3)nc12
[4]
  Emax: > 80%
[5]; filed as agonist
  Emax: > 80%
[2]
  EC50: < 1 nM
[3]; cho-k1
  EC50: 1 nM

## CC(C(=O)N[C@@H](C)c1ccc(Cl)c(F)c1)n1nc2ccccn2c1=O (stereo in doubt; form 1) [listing 1 of 2 here]
[1]
  EC50: < 1 nM
[2]
  EC50: < 1 nM
[3]
  EC50: < 1 nM

## CC(C(=O)N[C@@H](C)c1ccc(Cl)c(F)c1)n1nc2ccccn2c1=O (stereo in doubt; form 2) [listing 2 of 2 here]
[4]
  Emax: > 80%
[5]; filed as agonist
  Emax: 50%
[6]
  Emax: 25%

## CC(C(=O)N[C@@H](C)c1ccc(Cl)c(F)c1)n1nc2ncccn2c1=O (stereo in doubt; form 2) [listing 1 of 2 here]
[4]
  Emax: > 80%
[5]; filed as agonist
  Emax: 50%
[6]
  Emax: 25%

## CC(C(=O)N[C@@H](C)c1ccc(Cl)c(F)c1)n1nc2ncccn2c1=O (stereo in doubt; form 2) [listing 2 of 2 here]
[1]
  EC50: ≥ 100 nM
[3]; cho-k1
  EC50: 1 nM

## CC(C(=O)N[C@@H](C)c1ccc(Cl)c(F)c1)n1nc2cccnn2c1=O (stereo in doubt; I-6-1) [listing 2 of 2 here]
[4]
  Emax: > 80%
[5]
  Emax: 25%
[6]; filed as agonist
  Emax: 50%

## Cc1ccc([C@H](C)NC(=O)C(C)n2nc3ccccn3c2=O)cc1 (stereo in doubt; form 2) [listing 2 of 2 here]
[1]
  EC50: < 1 nM
[3]
  EC50: ≥ 100 nM

## C[C@H](NC(=O)Cn1nc2cccc(N3CCNCC3)n2c1=O)c1ccc(OC(F)(F)F)cc1
[4]
  Emax: > 80%
[1]
  EC50: ≥ 100 nM
[2]; cho-k1
  EC50: 10 nM
[6]
  Emax: 25%

## C[C@H](NC(=O)Cn1nc2cccc(N3CC(F)(F)C3)n2c1=O)c1ccc(Cl)c(F)c1
[4]
  Emax: > 80%
[1]
  EC50: < 1 nM
[2]
  EC50: < 1 nM
[6]; filed as agonist
  Emax: 50%

## COc1ccn2c(=O)n(CC(=O)N[C@@H](C)c3ccc(C)cc3)nc2n1
[4]
  Emax: > 80%
[1]; cho-k1
  EC50: 1 nM
[2]; cho-k1
  EC50: 1 nM
[6]; filed as agonist
  Emax: 50%

## CC(C(=O)N[C@@H](C)c1ccc(Cl)c(F)c1)n1nc2ccccn2c1=O (stereo in doubt; form 1) [listing 2 of 2 here]
[4]
  Emax: > 80%
[5]; filed as agonist
  Emax: > 80%
[6]; filed as agonist
  Emax: 50%

## C[C@H](NC(=O)Cn1nc2c(N3CCNCC3)nccn2c1=O)c1ccc(Cl)c(F)c1
[4]
  Emax: > 80%
[1]; cho-k1
  EC50: 10 nM
[2]; cho-k1
  EC50: 1 nM
[6]; filed as agonist
  Emax: 50%

## COc1ccn2c(=O)n(CC(=O)N[C@@H](C)c3ccc(Cl)cc3)nc2n1
[4]
  Emax: > 80%
[1]; cho-k1
  EC50: 1 nM
[2]; cho-k1
  EC50: 1 nM
[6]; filed as agonist
  Emax: 50%

## C[C@H](NC(=O)Cn1nc2c(N3CCN(C)CC3)nccn2c1=O)c1ccc(Cl)c(F)c1
[4]
  Emax: 50%
[1]; cho-k1
  EC50: 1 nM
[2]; cho-k1
  EC50: 1 nM
[6]; filed as agonist
  Emax: > 80%

## Cc1ccc([C@H](C)NC(=O)Cn2nc3c(N)cccn3c2=O)cc1
[4]
  Emax: > 80%
[1]; cho-k1
  EC50: 1 nM
[2]; cho-k1
  EC50: 1 nM
[6]; filed as agonist
  Emax: 50%

## CNc1nccn2c(=O)n(CC(=O)N[C@@H](C)c3ccc(Cl)c(F)c3)nc12
[4]
  Emax: > 80%
[1]
  EC50: < 1 nM
[2]
  EC50: < 1 nM
[6]; filed as agonist
  Emax: > 80%

## CC(C(=O)N[C@@H](C)c1ccc(Cl)c(F)c1)n1nc2ncccn2c1=O (stereo in doubt; form 1) [listing 1 of 2 here]
[1]; cho-k1
  EC50: 10 nM
[2]; cho-k1
  EC50: 1 nM
[3]
  EC50: ≥ 100 nM

## C[C@H](NC(=O)Cn1nc2cccnn2c1=O)c1ccc(C2CC2)cc1
[4]
  Emax: 50%
[1]; cho-k1
  EC50: 10 nM
[2]; cho-k1
  EC50: 10 nM
[6]; filed as agonist
  Emax: 50%

## Cc1ccc([C@H](C)NC(=O)Cn2nc3c(C4CCNC4)cccn3c2=O)cc1 (stereo partly specified)
[4]
  Emax: 50%
[1]
  EC50: ≥ 100 nM
[2]
  EC50: ≥ 100 nM
[6]; filed as agonist
  Emax: 50%

## Cc1nccn2c(=O)n(CC(=O)N[C@@H](C)c3ccc(Cl)c(F)c3)nc12
[4]
  Emax: > 80%
[1]
  EC50: < 1 nM
[2]
  EC50: < 1 nM
[6]; filed as agonist
  Emax: > 80%

## Cc1cnc2nn(CC(=O)N[C@@H](C)c3ccc(Cl)c(F)c3)c(=O)n2c1
[4]
  Emax: > 80%
[1]; cho-k1
  EC50: 1 nM
[2]; cho-k1
  EC50: 1 nM
[6]; filed as agonist
  Emax: > 80%

## CC(C(=O)N[C@@H](C)c1ccc(Cl)c(F)c1)n1nc2ncccn2c1=O (stereo in doubt; form 1) [listing 2 of 2 here]
[4]
  Emax: > 80%
[5]; filed as agonist
  Emax: 50%
[6]; filed as agonist
  Emax: 50%

## C[C@H](NC(=O)Cn1nc2cc(I)ccn2c1=O)c1ccc(Cl)c(F)c1
[4]
  Emax: > 80%
[1]
  EC50: < 1 nM
[2]
  EC50: < 1 nM
[6]; filed as agonist
  Emax: > 80%

## C[C@H](NC(=O)Cn1nc2cnccn2c1=O)c1ccc(Cl)c(F)c1
[4]
  Emax: > 80%
[1]; cho-k1
  EC50: 1 nM
[2]; cho-k1
  EC50: 1 nM
[6]; filed as agonist
  Emax: > 80%

## C[C@H](NC(=O)Cn1nc2ccccn2c1=O)c1ccc(Cl)cc1
[4]
  Emax: > 80%
[1]
  EC50: < 1 nM
[2]
  EC50: < 1 nM
[6]; filed as agonist
  Emax: 50%

## C[C@H](NC(=O)Cn1nc2ccccn2c1=O)c1ccc(OC(F)F)c(F)c1
[4]
  Emax: > 80%
[1]; cho-k1
  EC50: 1 nM
[2]; cho-k1
  EC50: 1 nM
[6]; filed as agonist
  Emax: 50%

## C[C@H](NC(=O)Cn1nc2cccc(N3CCN(C)CC3)n2c1=O)c1ccc(Cl)c(F)c1
[4]
  Emax: > 80%
[1]
  EC50: ≥ 100 nM
[2]; cho-k1
  EC50: 1 nM
[6]; filed as agonist
  Emax: > 80%

## C[C@H](NC(=O)Cn1nc2c(N3CCCCC3)nccn2c1=O)c1ccc(Cl)c(F)c1
[4]
  Emax: > 80%
[1]
  EC50: < 1 nM
[2]
  EC50: < 1 nM
[6]; filed as agonist
  Emax: > 80%
